According to PubChem BioAssay (NCI):
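48-hour exposure; five concentrations; linearly interpolated endpoints. TGI marks complete inhibition of growth.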

Tests used:
Test in all cases: NCI tumour cell line growth inhibition, 48 h
[1] = tested on: 786-0 renal
[2] = tested on: A498 renal
[3] = tested on: A549 NSCLC
[4] = tested on: ACHN renal
[5] = tested on: BT-549 breast
[6] = tested on: CAKI-1 renal
[7] = tested on: CCRF-CEM leukemia
[8] = tested on: COLO 205 colon
[9] = tested on: DU-145 prostate
[10] = tested on: EKVX NSCLC
[11] = tested on: HCC-2998 colon
[12] = tested on: HCT-116 colon
[13] = tested on: HCT-15 colon
[14] = tested on: HOP-62 NSCLC
[15] = tested on: HOP-92 NSCLC
[16] = tested on: IGROV1 ovarian
[17] = tested on: K-562 leukemia
[18] = tested on: KM12 colon
[19] = tested on: M14 melanoma
[20] = tested on: MCF7 breast
[21] = tested on: MDA-MB-231 breast
[22] = tested on: MDA-MB-435
[23] = tested on: MDA-N
[24] = tested on: MOLT-4 leukemia
[25] = tested on: NCI-H226 lung
[26] = tested on: NCI-H23 lung
[27] = tested on: NCI-H460 lung
[28] = tested on: NCI-H522 lung
[29] = tested on: NCI/ADR-RES ovarian
[30] = tested on: OVCAR-3 ovarian
[31] = tested on: OVCAR-4 ovarian
[32] = tested on: OVCAR-5 ovarian
[33] = tested on: OVCAR-8 ovarian
[34] = tested on: PC-3 prostate
[35] = tested on: RPMI-8226 leukemia
[36] = tested on: RXF 393 renal
[37] = tested on: SF-268 CNS
[38] = tested on: SF-295 CNS
[39] = tested on: SF-539 CNS
[40] = tested on: SK-MEL-28 melanoma
[41] = tested on: SK-OV-3 ovarian
[42] = tested on: SN12C renal
[43] = tested on: SNB-19 CNS
[44] = tested on: SNB-75 CNS
[45] = tested on: SR leukemia
[46] = tested on: SW-620 colon
[47] = tested on: T-47D breast
[48] = tested on: U251 CNS
[49] = tested on: UACC-257 melanoma
[50] = tested on: UACC-62 melanoma
[51] = tested on: UO-31 renal
[52] = tested on: HL-60(TB) leukemia
[53] = tested on: HS 578T breast
[54] = tested on: HT29 colon
[55] = tested on: LOX IMVI melanoma
[56] = tested on: MALME-3M melanoma
[57] = tested on: SK-MEL-2 melanoma
[58] = tested on: SK-MEL-5 melanoma
[59] = tested on: TK-10 renal

## Cc1cc(C#N)c(Nc2ccccc2[N+](=O)[O-])s1
[1]
  TGI: > 100 µM
[2]
  TGI: > 100 µM
[3]
  TGI: > 100 µM
[4]
  TGI: > 100 µM
[5]
  TGI: 60.5 µM
[6]
  TGI: > 100 µM
[7]
  TGI: > 100 µM
[8]
  TGI: > 100 µM
[9]
  TGI: 78.8 µM
[10]
  TGI: 97.2 µM
[11]
  TGI: 91.1 µM
[12]
  TGI: > 100 µM
[13]
  TGI: > 100 µM
[14]
  TGI: 90.9 µM
[15]
  TGI: > 100 µM
[16]
  TGI: > 100 µM
[17]
  TGI: > 100 µM
[18]
  TGI: > 100 µM
[19]
  TGI: > 100 µM
[20]
  TGI: > 100 µM
[21]
  TGI: 92.4 µM
[22]
  TGI: 47.5 µM
[23]
  TGI: 30.9 µM
[24]
  TGI: > 100 µM
[25]
  TGI: > 100 µM
[26]
  TGI: > 100 µM
[27]
  TGI: > 100 µM
[28]
  TGI: 57.6 µM
[29]
  TGI: 53 µM
[30]
  TGI: 71.5 µM
[31]
  TGI: > 100 µM
[32]
  TGI: 62.9 µM
[33]
  TGI: > 100 µM
[34]
  TGI: 73.9 µM
[35]
  TGI: > 100 µM
[36]
  TGI: 47 µM
[37]
  TGI: > 100 µM
[38]
  TGI: > 100 µM
[39]
  TGI: > 100 µM
[40]
  TGI: > 100 µM
[41]
  TGI: > 100 µM
[42]
  TGI: 67.7 µM
[43]
  TGI: > 100 µM
[44]
  TGI: > 100 µM
[45]
  TGI: > 100 µM
[46]
  TGI: > 100 µM
[47]
  TGI: > 100 µM
[48]
  TGI: 57.6 µM
[49]
  TGI: > 100 µM
[50]
  TGI: > 100 µM
[51]
  TGI: > 100 µM

## NCCCCCNOCCCN
[1]
  TGI: > 100 µM
[3]
  TGI: > 100 µM
[4]
  TGI: > 100 µM
[5]
  TGI: > 100 µM
[7]
  TGI: > 100 µM
[8]
  TGI: > 100 µM
[9]
  TGI: > 100 µM
[10]
  TGI: > 100 µM
[11]
  TGI: > 100 µM
[12]
  TGI: > 100 µM
[13]
  TGI: > 100 µM
[52]
  TGI: > 100 µM
[14]
  TGI: > 100 µM
[15]
  TGI: > 100 µM
[53]
  TGI: > 100 µM
[54]
  TGI: > 100 µM
[16]
  TGI: > 100 µM
[17]
  TGI: > 100 µM
[18]
  TGI: > 100 µM
[55]
  TGI: > 100 µM
[19]
  TGI: > 100 µM
[56]
  TGI: > 100 µM
[21]
  TGI: > 100 µM
[22]
  TGI: > 100 µM
[23]
  TGI: > 100 µM
[24]
  TGI: > 100 µM
[25]
  TGI: > 100 µM
[26]
  TGI: > 100 µM
[27]
  TGI: > 100 µM
[28]
  TGI: > 100 µM
[29]
  TGI: > 100 µM
[30]
  TGI: > 100 µM
[31]
  TGI: > 100 µM
[32]
  TGI: > 100 µM
[33]
  TGI: > 100 µM
[34]
  TGI: > 100 µM
[35]
  TGI: > 100 µM
[37]
  TGI: > 100 µM
[38]
  TGI: > 100 µM
[39]
  TGI: > 100 µM
[57]
  TGI: > 100 µM
[40]
  TGI: > 100 µM
[58]
  TGI: > 100 µM
[41]
  TGI: > 100 µM
[42]
  TGI: > 100 µM
[43]
  TGI: > 100 µM
[44]
  TGI: > 100 µM
[45]
  TGI: > 100 µM
[46]
  TGI: > 100 µM
[47]
  TGI: > 100 µM
[59]
  TGI: > 100 µM
[48]
  TGI: > 100 µM
[49]
  TGI: > 100 µM
[50]
  TGI: > 100 µM
[51]
  TGI: > 100 µM
